Data: the supplement of paper PMC10307832

Assays:
Assay in all cases: relative viability (nuclei count vs DMSO), 5 days (fraction); higher = more cells survive
[1] = compound: CCN(CCO)CCCC(C)Nc1ccnc2cc(Cl)ccc12 [Hydroxychloroquine] + C[C@@H](Oc1cc(-c2cnn(C3CCNCC3)c2)cnc1N)c1c(Cl)ccc(F)c1Cl [Crizotinib] (partner 1 µM)
Summary of the method: (§1)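 Relative viability was taken as the ratio of nuclei in treated wells to nuclei in vehicle wells. Lung cancer cell lines in 1536-well plates received compounds by pin tool one day after seeding, either one drug alone or a fixed anchor-drug dose plus five library-drug doses (not always all listed) in √10 steps. Nuclei were counted on 4× images after 5 days of treatment, and values are medians of duplicate plates.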

[2] = compound: CCN(CCO)CCCC(C)Nc1ccnc2cc(Cl)ccc12 [Hydroxychloroquine] + N=C(N)NC(=N)NCCc1ccccc1 [Phenformin] (partner 250 µM)
Summary of the method: as §1

[3] = compound: CCN(CCO)CCCC(C)Nc1ccnc2cc(Cl)ccc12 [Hydroxychloroquine] + CC1(C)CCC(c2ccc(Cl)cc2)=C(CN2CCN(c3ccc(C(=O)NS(=O)(=O)c4ccc(N[C@H](CCN5CCOCC5)CSc5ccccc5)c(S(=O)(=O)C(F)(F)F)c4)cc3)CC2)C1 [Navitoclax] (partner 0.5 µM)
Summary of the method: as §1

[4] = compound: CCN(CCO)CCCC(C)Nc1ccnc2cc(Cl)ccc12 [Hydroxychloroquine] + Nc1ncn([C@H]2C[C@H](O)[C@@H](CO)O2)c(=O)n1 [Decitabine] (partner 2 µM)
Summary of the method: as §1

| Cell Line | relative viability ([1]; first compound 0.5 µM) | relative viability ([1]; first compound 1.581 µM) | relative viability ([1]; first compound 5 µM) | relative viability ([1]; first compound 15.81 µM) | relative viability ([1]; first compound 50 µM) | relative viability ([2]; first compound 0.5 µM) | relative viability ([2]; first compound 1.581 µM) | relative viability ([2]; first compound 5 µM) | relative viability ([2]; first compound 15.81 µM) | relative viability ([2]; first compound 50 µM) | relative viability ([3]; first compound 0.5 µM) | relative viability ([3]; first compound 1.581 µM) | relative viability ([3]; first compound 5 µM) | relative viability ([3]; first compound 15.81 µM) | relative viability ([3]; first compound 50 µM) | relative viability ([4]; first compound 0.5 µM) | relative viability ([4]; first compound 1.581 µM) | relative viability ([4]; first compound 5 µM) | relative viability ([4]; first compound 15.81 µM) | relative viability ([4]; first compound 50 µM) |
| --- | --- | --- | --- | --- | --- | --- | --- | --- | --- | --- | --- | --- | --- | --- | --- | --- | --- | --- | --- | --- |
| NCI-H2087 | 1.02 | 0.982 | 1.09 | 0.864 | 1.11 | 0.445 | 0.383 | 0.486 | 0.566 | 0.464 | 0.972 | 0.938 | 1.04 | 1.16 | 1.04 | 0.265 | 0.258 | 0.242 | 0.219 | 0.294 |
| NCI-H2126 | 1.12 | 1.06 | 1.11 | 0.984 | 1.13 | 0.528 | 0.534 | 0.56 | 0.521 | 0.506 | 0.859 | 0.804 | 0.848 | 0.884 | 0.833 | 0.584 | 0.547 | 0.57 | 0.579 | 0.566 |
| NCI-H2170 | 1.24 | 1.24 | 1.35 | 1.27 | 1.57 | 0.427 | 0.413 | 0.435 | 0.427 | 0.417 | 0.54 | 0.695 | 0.631 | 0.644 | 0.549 | 0.438 | 0.449 | 0.396 | 0.438 | 0.457 |
| NCI-H2347 | 0.887 | 0.588 | 0.544 | 0.728 | 0.85 | 0.469 | 0.466 | 0.446 | 0.329 | 0.377 | 0.784 | 0.81 | 0.689 | 0.851 | 0.702 | 0.658 | 0.536 | 0.618 | 0.573 | 0.636 |
| NCI-H2405 | 0.856 | 0.813 | 0.867 | 0.88 | 0.864 | 0.417 | 0.352 | 0.368 | 0.384 | 0.398 | 1.03 | 0.753 | 0.857 | 0.914 | 0.8 | 0.718 | 0.743 | 0.774 | 0.69 | 0.761 |
| NCI-H3122 | 0.283 | 0.275 | 0.275 | 0.252 | 0.279 | 0.379 | 0.364 | 0.373 | 0.358 | 0.344 | 1.03 | 0.994 | 1.01 | 1.04 | 1.03 | 0.429 | 0.413 | 0.468 | 0.426 | 0.403 |
| PC-3 [JPC-3] | 0.999 | 1 | 1.06 | 0.98 | 1.16 | 0.448 | 0.457 | 0.448 | 0.432 | 0.507 | 0.851 | 0.776 | 0.83 | 0.67 | 0.85 | 0.814 | 0.767 | 0.805 | 0.792 | 0.761 |
| PC-14 | 0.856 | 0.917 | 0.919 | 0.907 | 0.916 | 0.676 | 0.573 | 0.551 | 0.595 | 0.601 | 1.03 | 1.07 | 0.979 | 1.01 | 0.962 | 0.248 | 0.149 | 0.214 | 0.231 | 0.201 |
| RERF-LC-KJ | 0.942 | 0.785 | 0.786 | 0.848 | 0.81 | 0.4 | 0.402 | 0.406 | 0.402 | 0.408 | 0.894 | 0.983 | 0.93 | 0.934 | 0.749 | 0.659 | 0.684 | 0.754 | 0.7 | 0.608 |
| SK-LU-1 | 0.948 | 0.895 | 0.911 | 0.928 | 0.938 | 0.505 | 0.528 | 0.544 | 0.538 | 0.429 | 0.747 | 0.96 | 0.851 | 1.21 | 0.658 | 0.605 | 0.631 | 0.664 | 0.557 | 0.762 |
| SK-MES-1 | 0.933 | 0.955 | 1.13 | 1.1 | 1.03 | 0.668 | 0.741 | 0.723 | 0.693 | 0.635 | 1.45 | 1.21 | 1.25 | 1.27 | 1.17 | 0.389 | 0.304 | 0.419 | 0.361 | 0.366 |
| SW 1573 | 0.782 | 0.839 | 0.872 | 0.76 | 0.753 | 0.356 | 0.333 | 0.402 | 0.402 | 0.368 | 0.971 | 0.884 | 1.01 | 1.03 | 0.972 | 0.444 | 0.296 | 0.409 | 0.554 | 0.428 |
| UMC-11 | 0.586 | 0.573 | 0.69 | 0.664 | 0.846 |  | 0.305 | 0.308 | 0.315 | 0.335 | 0.307 | 0.288 | 0.299 | 0.322 | 0.327 | 0.541 | 0.485 | 0.633 | 0.663 | 0.619 |
